≈ marks a conversion by molar mass, not a printed value. Where “and” joins values, the source holds several entries; their conditions need not be identical. Identical values can stand only once. Like-named read-outs stand apart in the source and are kept apart here.
How the values were obtained:
K. pneumoniae ATCC 13883 = assay: MIC broth microdilution (CLSI); format: cell-based; conditions: Klebsiella pneumoniae, ATCC13883; ATCC 13883 used for 7l, 8b, 14, 16b, 16c
Method: (§1) MICs (Tables 1 and S1–S3) were determined with a standard serial broth microdilution technique according to Clinical and Laboratory Standards Institute (CLSI) guidelines.[45] Cation-adjusted Mueller Hinton broth 2 (MHBII) was used for bacterial growth under standard laboratory conditions and for antimicrobial susceptibility tests. MHBII broth was prepared by dissolving 22 g of MHBII powder [containing beef extract (3 g), acid hydrolysate of casein (17.5 g), and starch (1.5 g); Becton Dickinson and Co.] in 1 L of water. To prepare MHBII agar, 14 g of agar (Bacto; Molar Chemicals) was added to 1 L of broth.
(§2) Bacterial strains were inoculated onto MHBII agar plates and grown overnight at 37 °C. Next, three individual colonies from each strain were inoculated into 1 mL of MHBII medium and propagated at 37 °C overnight, with agitation at 250 rpm. For Enterococcus sp., the cells were plated in brain–heart infusion [(BHI) medium] agar plates, and BHI broth was used to determine the MICs. […] The highest final DMSO concentration in the experiments was 0.64% (in the case of the 64 μg/mL concentration of the inhibitor). Following the dilutions, each well was seeded with 5 × 10^4 bacterial cells (in 100 μL final volume). Each measurement was performed in three parallel replicates, and to avoid possible edge effects in the microwell plates, the outside rows (A, H) were filled with sterile medium. Following the inoculations, the plates were covered with the lids and wrapped in polyethylene plastic bags, to minimize evaporation but to allow O2 transfer. The plates were incubated at 37 °C under continuous shaking at 150 rpm for 18 h. After incubation, the OD600 of each well was measured using a microplate reader (Synergy 2; Biotek). The MICs were defined as the antibiotic concentrations which inhibited the growth of the bacterial cultures; that is, the drug concentration where the average OD600 increment of the three technical replicates was below 1.5-fold the background OD increment.
(§3) cMIC, minimum inhibitory concentration
(§4) Bacterial strains that were used: S. aureus ATCC 29213, S. aureus (MRSA) ATCC 43300, S. aureus (VISA) ATCC 700699, E. faecalis ATCC 29212, E. faecium ATCC 700221,
(§5) E. coli ATCC 25922, P. aeruginosa ATCC 27853 (PAO1 for compounds 7l, 8b, 14), A. baumannii ATCC 17978 (ATCC 19606 for compounds 7l, 8b, 14), K. pneumoniae ATCC
(§6) Measurements were performed according to the Clinical and Laboratory Standards Institute guidelines, with three independent measurements.

A. baumannii ATCC 19606 = assay: MIC broth microdilution (CLSI); format: cell-based; conditions: Acinetobacter baumannii, ATCC19606; ATCC 19606 used for 7l, 8b, 14, 16b, 16c; read-out: MIC
Method: as §1, §2, §3, §4, §5, §6

P. aeruginosa PAO1 = assay: MIC broth microdilution (CLSI); format: cell-based; conditions: Pseudomonas aeruginosa; PAO1 used for 7l, 8b, 14, 16b, 16c
Method: as §1, §2, §3, §4, §5, §6

[1] = system: P. aeruginosa PAO1, PAO750; assay: MIC, wild-type vs efflux-defective; format: cell-based; conditions: Pseudomonas aeruginosa
[2] = thermodynamic solubility in phosphate buffer, LC-MS/MS; conditions: 100 mM phosphate buffer pH 7.4, 24 h, 37 °C
Method: 0.5 mL of 67 mM phosphate
in a rotational shaker (400 rpm) at 23 °C. After the incubation an aliquot of 200 µL was
1 µL of the supernatant was transferred to 96-well plate in triplicate wells, diluted 100×
with acetonitrile/H2O (60/40) containing 50 nM warfarin as internal standard and analyzed
performed comparing to a separately constructed standard series (10 nM to 1000 nM).
shaker (900 rpm) at 37 °C. After the incubation an aliquot of 200 µL was transferred to a
conical glass insert and centrifuged for 30 min at 10 000 × g at 37 °C. The supernatant was
transferred to a new HPLC vial appropriately diluted (100×, 1000×, 5000×) with
acetonitrile/H2O (50/50) containing 50 nM warfarin as internal standard and analyzed by
performed comparing to a separately constructed standard curve between 3 nM to 20000

[3] = system: Chinese hamster ovary K1 cells; assay: in vitro micronucleus test
[4] = system: S. aureus ATCC 700699 (VISA); format: in vivo, female CD-1 mice; conditions: for Change in log10CFU/gr of thigh from 2 hour control / Change in log10CFU/gr of thigh from 26 hours control / Average log10CFU/gr of thigh: IV; for Average log10CFU/gr of thigh: 26 h
Method: The neutropenic mouse thigh infection model study was performed by NeoSome Life Sciences, LLC (Lexington, MA, USA) according to NeoSome Institutional Animal Care and Use Committee (IACUC) policies and guidelines as well as NIH’s Office of Laboratory Animal Welfare (OLAW) standards.
Neutropenic mouse thigh infection experiments were performed on female CD-1 mice (Charles River Laboratories, USA). To induce neutropenia, mice received two doses of cyclophosphamide on days −4 and −1 with 150 and 100 mg/kg delivered intraperitoneally (IP), respectively. The inoculum of the testing strain, S. aureus ATCC 700699-P1 (VISA), was prepared from overnight agar plate cultures. To prepare bacterial inoculums, a portion of the plate was resuspended in sterile saline and adjusted to an OD of 0.12 at 625 nm. Next, the resulted bacterial suspension was further diluted to reach an infecting inoculum of 6.0 × 10^5 cfu per each mouse. Plate counts of the inoculum were also performed in each case to confirm the inoculum concentration, and the actual inoculum size was 7.25 × 10^5 cfu/mouse. Mice were inoculated with 100 μL of the prepared bacterial suspension via an intramuscular injection into the right rear thigh. […] The test agent was then dosed via IV administration, to ensure optimal distribution, at 2, 10, and 18 h post-infection. Beginning at 2 h, post-infection mice were dosed with either test article or positive control antibiotic. Mice receiving test agents were dosed intravenously at 10 mL/kg. Linezolid was delivered as a SC dose to ensure optimized exposure, distribution, and efficacy. Four animals were dosed per group. One group of four mice was euthanized at the initiation of therapy (t = 2 h) and cfus determined. All remaining mice were euthanized at 26 h post-infection. At termination, thighs were aseptically excised, weighed, and homogenized to a uniform consistency in 2 mL of sterile saline. The homogenate was serially diluted and plated on bacterial growth media. The cfus were enumerated after overnight incubation.

A. baumannii DNA gyrase = A. baumannii DNA gyrase (Acinetobacter baumannii, UniProt A0ABX6CA01); assay: gel-based supercoiling assay; format: biochemical
A. baumannii DNA gyrase, sequence (A0ABX6CA01 1-822): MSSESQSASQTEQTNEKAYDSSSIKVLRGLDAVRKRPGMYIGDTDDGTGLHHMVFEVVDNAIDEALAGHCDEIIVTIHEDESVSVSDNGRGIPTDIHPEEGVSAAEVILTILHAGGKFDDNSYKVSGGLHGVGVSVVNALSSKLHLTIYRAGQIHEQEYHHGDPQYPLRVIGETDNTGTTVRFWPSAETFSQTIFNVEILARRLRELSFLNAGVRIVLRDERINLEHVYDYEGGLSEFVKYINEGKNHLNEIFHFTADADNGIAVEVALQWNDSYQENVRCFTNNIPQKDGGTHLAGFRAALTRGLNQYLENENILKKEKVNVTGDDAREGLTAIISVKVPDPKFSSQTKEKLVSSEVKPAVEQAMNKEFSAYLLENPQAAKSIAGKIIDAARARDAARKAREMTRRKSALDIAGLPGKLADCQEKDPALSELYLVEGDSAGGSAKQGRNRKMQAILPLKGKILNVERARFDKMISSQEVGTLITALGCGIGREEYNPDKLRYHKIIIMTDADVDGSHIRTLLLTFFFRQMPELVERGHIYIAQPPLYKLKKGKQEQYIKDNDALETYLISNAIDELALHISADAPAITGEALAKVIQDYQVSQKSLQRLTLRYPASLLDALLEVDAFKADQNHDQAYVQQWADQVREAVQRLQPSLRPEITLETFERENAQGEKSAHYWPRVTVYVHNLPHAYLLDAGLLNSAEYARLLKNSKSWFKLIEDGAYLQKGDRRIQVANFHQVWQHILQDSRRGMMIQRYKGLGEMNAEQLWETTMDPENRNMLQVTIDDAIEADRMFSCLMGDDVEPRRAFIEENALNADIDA
A. baumannii DNA gyrase, sequence (A0ABX6CII0 1-904 partner): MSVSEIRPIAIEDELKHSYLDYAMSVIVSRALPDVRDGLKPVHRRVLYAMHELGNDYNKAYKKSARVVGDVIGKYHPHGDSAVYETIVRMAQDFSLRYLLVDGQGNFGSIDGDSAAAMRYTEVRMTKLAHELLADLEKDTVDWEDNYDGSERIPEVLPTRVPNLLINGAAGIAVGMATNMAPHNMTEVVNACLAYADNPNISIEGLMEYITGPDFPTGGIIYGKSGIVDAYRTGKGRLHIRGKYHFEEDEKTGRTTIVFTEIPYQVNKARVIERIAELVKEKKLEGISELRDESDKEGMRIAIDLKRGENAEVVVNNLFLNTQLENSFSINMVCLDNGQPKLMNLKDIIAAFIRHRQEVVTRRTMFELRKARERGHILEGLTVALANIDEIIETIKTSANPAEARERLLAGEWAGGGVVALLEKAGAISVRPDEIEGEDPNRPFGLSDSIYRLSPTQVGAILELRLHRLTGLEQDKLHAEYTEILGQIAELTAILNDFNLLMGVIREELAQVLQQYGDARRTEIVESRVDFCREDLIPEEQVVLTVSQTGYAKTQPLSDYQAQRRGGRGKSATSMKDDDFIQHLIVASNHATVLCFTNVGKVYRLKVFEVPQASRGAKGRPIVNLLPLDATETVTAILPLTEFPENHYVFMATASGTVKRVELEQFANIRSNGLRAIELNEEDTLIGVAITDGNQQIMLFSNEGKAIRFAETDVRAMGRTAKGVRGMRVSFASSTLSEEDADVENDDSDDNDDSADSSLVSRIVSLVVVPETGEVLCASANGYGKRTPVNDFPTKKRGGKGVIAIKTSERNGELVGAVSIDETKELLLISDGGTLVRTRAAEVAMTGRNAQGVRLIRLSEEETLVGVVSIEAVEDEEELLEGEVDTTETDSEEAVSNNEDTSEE
Method: In all experiments, the activity of the
enzymes was determined prior to the testing of the compound and 1 unit (U) was defined as the
amount of enzyme required to just fully supercoil or decatenate the substrate. This amount of
enzyme was initially used in determination of control inhibitor activity. These experiments were
performed in duplicate. […] The final DMSO
concentration was 1% for all assays. All measurements were performed in quadruplicates. The
condition for each reaction were as follows:
− S. aureus gyrase supercoiling assay
1 U of S. aureus gyrase was incubated with 0.5 µg of relaxed pBR322 DNA in a 30 µL reaction at
magnesium acetate, 10 mM DTT, 2 mM ATP, 500 mM potassium glutamate and 0.05 mg/mL
− S. aureus topo IV decatenation assay
1 U of S. aureus topo IV was incubated with 20 µg kDNA in a 30 µL reaction at 37 °C for 30
mM ATP, 350 mM potassium glutamate and 0.05 mg/mL albumin.
− A. baumannii gyrase supercoiling assay
1 U of A. baumannii gyrase was incubated with 0.5 µg of relaxed pBR322 DNA in a 30 µL reaction
blue), before being loaded on a 1.0% TAE gel run at 80V for 2 hours. Bands were visualised by
ethidium bromide staining for 20 minutes and destaining for 20 minutes. Gels were scanned using
documentation equipment (GeneGenius, Syngene, Cambridge, UK) and % inhibition levels were
measured by determining the relative fluorescence of the supercoiled band using gel scanning
software. […]

SMILES: Cc1[nH]c(C(=O)Nc2nc3c(N4CCOCC4)cc(C(=O)O)cc3s2)cc1F [16b, 2-(4-Fluoro-5-methyl-1H-pyrrole-2-carboxamido)-4-morpholinobenzo[d]thiazole-6-carboxylic Acid]
- MIC (K. pneumoniae ATCC 13883): > 64 µg/mL
- MIC (A. baumannii ATCC 19606): > 64 µg/mL
- MIC (P. aeruginosa PAO1): > 64 µg/mL

SMILES: Cc1[nH]c(C(=O)Nc2nc3c(N4CCOCC4)cc(C(=O)O)cc3s2)c(Cl)c1Cl [7a, 2-(3,4-Dichloro-5-methyl-1H-pyrrole-2-carboxamido)-4-morpholinobenzo[d]thiazole-6-carboxylic Acid]
- MIC ([1]; PAO1, P. aeruginosa PAO1): > 64 µg/mL
- MIC ([1]; PAO1, P. aeruginosa PAO750, efflux-defective): 0.25 µg/mL (≈ 0.549 µM)
- thermodynamic solubility, second method [2]: 167.9 µM (≈ 76.4 µg/mL)
- % Micronuclei ([3]; with S9, 25 µM): 2.7%
- No. binucleate cells ([3]; with S9, 25 µM): 1707
- % Cytostasis ([3]; with S9, 50 µM): 1.4%
- % Micronuclei ([3]; with S9, 50 µM): 4.5%
- No. binucleate cells ([3]; with S9, 50 µM): 1296
- % Cytostasis ([3]; with S9, 100 µM): tox
- genotoxic concentration (no genotoxicity up to) ([3]; with S9 activation): > 50 µM
- % Micronuclei ([3]; without S9, 6.25 µM): 2.8%
- No. binucleate cells ([3]; without S9, 6.25 µM): 3160
- % Micronuclei ([3]; without S9, 25 µM): 2.5%
- No. binucleate cells ([3]; without S9, 25 µM): 2644
- % Cytostasis ([3]; without S9, 50 µM): 0.1%
- % Micronuclei ([3]; without S9, 50 µM): 4.4%
- No. binucleate cells ([3]; without S9, 50 µM): 1687
- % Cytostasis ([3]; without S9, 100 µM): 40.8%
- % Micronuclei ([3]; without S9, 100 µM): 7%
- No. binucleate cells ([3]; without S9, 100 µM): 642
- % Micronuclei ([3]; without S9, […]): 2.7%
- genotoxic concentration (no genotoxicity up to) ([3]; without metabolic activation): > 100 µM
- CFU/ g of thigh, single animals ([4]; 10 mg/kg): 1.82E+08 and 2.23E+08 and 2.51E+08 and 1.42E+08
- log CFU, single animals ([4]; 10 mg/kg): 8.26 and 8.35 and 8.40 and 8.15
- Change in log10CFU/gr of thigh from 2 hour control ([4]; 10 mg/kg TID): 2.00
- Change in log10CFU/gr of thigh from 26 hours control ([4]; 10 mg/kg TID): 0.19
- Average log10CFU/gr of thigh ([4]; 10 mg/kg TID): 8.29
- CFU/ g of thigh, single animals ([4]; 25 mg/kg): 4.64E+05 and 4.16E+06 and 1.83E+07 and 9.23E+06
- log CFU, single animals ([4]; 25 mg/kg): 5.67 and 6.62 and 7.26 and 6.97
- reduction compared to 26 h controls ([4]; 25 mg/kg IV): 1.47 log10 cfu
- Change in log10CFU/gr of thigh from 2 hour control ([4]; 25 mg/kg TID): 0.33
- Change in log10CFU/gr of thigh from 26 hours control ([4]; 25 mg/kg TID): -1.47
- Average log10CFU/gr of thigh ([4]; 25 mg/kg TID): 6.63
- CFU/ g of thigh, single animals ([4]; 50 mg/kg): 1.72E+05 and 1.68E+05 and 8.81E+05 and 8.82E+04
- log CFU, single animals ([4]; 50 mg/kg): 5.24 and 5.23 and 5.95 and 4.95
- reduction compared to 26 h controls ([4]; 50 mg/kg IV): 2.76 log10 cfu
- reduction compared to 2 hour infection controls ([4]; 50 mg/kg IV (TID)): 0.96 log10 cfu
- Change in log10CFU/gr of thigh from 2 hour control ([4]; 50 mg/kg TID): -0.96
- Change in log10CFU/gr of thigh from 26 hours control ([4]; 50 mg/kg TID): -2.76
- Average log10CFU/gr of thigh ([4]; 50 mg/kg TID): 5.34
- IC50 (A. baumannii DNA gyrase): 2.42 ± 0.28 nM

— paper PMC10041525, “New Dual Inhibitors of Bacterial Topoisomerases with Broad-Spectrum Antibacterial Activity and In Vivo Efficacy against Vancomycin-Intermediate Staphylococcus aureus” (Journal of Medicinal Chemistry, 2023)
